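Where inhibition never reached the appropriate level, the endpoint shown equals the highest concentration tested. Otherwise, values were interpolated linearly from a five-concentration, 48-hour dose response in 96-well plates. At the GI50, growth is halved. TGI is the concentration that stops growth completely.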
Tests used:
Assay in all cases: growth of human tumour cells (NCI), 48 h
M14 melanoma = system: M14 melanoma
HCT-116 colon = system: HCT-116 colon
HS 578T breast = system: HS 578T breast
RXF 393 renal = system: RXF 393 renal
SF-268 CNS = system: SF-268 CNS
EKVX NSCLC = system: EKVX NSCLC
SNB-75 CNS = system: SNB-75 CNS
NCI-H226 lung = system: NCI-H226 lung
NCI/ADR-RES ovarian = system: NCI/ADR-RES ovarian
BT-549 breast = system: BT-549 breast

SMILES | GI50 (M14 melanoma) | TGI (M14 melanoma) | GI50 (HCT-116 colon) | TGI (HCT-116 colon) | GI50 (HS 578T breast) | TGI (HS 578T breast) | GI50 (RXF 393 renal) | TGI (RXF 393 renal) | GI50 (SF-268 CNS) | TGI (SF-268 CNS) | GI50 (EKVX NSCLC) | TGI (EKVX NSCLC) | GI50 (SNB-75 CNS) | TGI (SNB-75 CNS) | GI50 (NCI-H226 lung) | TGI (NCI-H226 lung) | GI50 (NCI/ADR-RES ovarian) | TGI (NCI/ADR-RES ovarian) | GI50 (BT-549 breast) | TGI (BT-549 breast)
N[C@@H]1CCCC[C@H]1N.O=C([O-])C(=O)[O-].[Pt+4] | 7.22 µM | 45.1 µM | 378 nM | > 100 µM | > 100 µM | > 100 µM | 8.13 µM | > 39.8 µM | 4120 nM | > 100 µM | 88700 nM | > 100 µM | 18500 nM | > 100 µM | 2550 nM | 17 µM | 0.0318 µM | 30.4 µM | 12300 nM | > 100 µM
Nc1c(Br)cc(Br)c2c1[nH]c(=O)c1ccccc12 | 9.89 µM | > 100 µM | 3980 nM | 20.2 µM | 3.07 µM | 30 µM | 4.7 µM | 22.1 µM | 9720 nM | > 69.3 µM | 1360 nM | 11.1 µM | 1360 nM | 3.77 µM | 2750 nM | 12.7 µM | 6.68 µM | 66.7 µM | 7050 nM | 41 µM
Ic1ccccc1-c1ccccc1 | > 100 µM | > 100 µM | 94900 nM | > 100 µM | > 100 µM | > 100 µM | 89.1 µM | > 100 µM | > 100000 nM | > 100 µM | > 100000 nM | > 100 µM | > 100000 nM | > 100 µM | > 100000 nM | > 100 µM | > 100 µM | > 100 µM | > 100000 nM | > 100 µM
C/C(=N/Nc1nc2ccccc2n1C)c1ccccn1 | 0.0489 µM | 0.285 µM | – | 14.8 µM | 0.287 µM | 25.6 µM | 0.169 µM | 3.24 µM | 202 nM | > 35.6 µM | 41.8 nM | 13.5 µM | 246 nM | 8.86 µM | 58.4 nM | 4.69 µM | 0.0364 µM | 0.555 µM | 223 nM | 25.5 µM
O=c1ccn(C2OC(CO/N=C/c3ccc(O)c(O)c3O)C(O)C2O)c(=O)[nH]1 (centres undefined) | 39 µM | > 100 µM | 20600 nM | 58.7 µM | 22.8 µM | 59.7 µM | 23 µM | 73.9 µM | 26500 nM | 85.6 µM | 33900 nM | > 100 µM | 16400 nM | 32.2 µM | > 100000 nM | > 100 µM | 20.5 µM | 49 µM | 68400 nM | > 100 µM
O=C(CNc1ccc2c(c1)C(=O)c1ccccc1C2=O)Nc1ccc2c(c1)C(=O)c1ccccc1C2=O | 0.712 µM | 2.04 µM | 240 nM | 0.711 µM | 2.29 µM | 13.2 µM | 0.687 µM | 2.04 µM | 575 nM | 1.71 µM | 1880 nM | 4.02 µM | 1790 nM | 4.3 µM | 568 nM | 1.44 µM | 0.819 µM | 4.68 µM | 641 nM | 1.99 µM
COc1cc2cc(Oc3ccc(NC(=O)Nc4cccc(C(F)(F)F)c4)cc3)c(C)nc2cc1OC | 1.67 µM | 7.67 µM | 1460 nM | 5.84 µM | 1.44 µM | 4.22 µM | 1.63 µM | 4.97 µM | 2570 nM | 15.5 µM | 1480 nM | 6.46 µM | 1170 nM | 6.18 µM | 1800 nM | 5.6 µM | 1.71 µM | 7.19 µM | 1430 nM | 6.18 µM
COc1ccc(/C=C\c2cc(OC)c(OC)c(OC)c2)cc1OC(=O)c1cccc(Cn2cc(CCOC(=O)[C@H](N)Cc3cn(C)c4ccccc34)nn2)c1 | < 0.01 µM | 16.9 µM | < 10 nM | 38.7 µM | < 0.01 µM | > 100 µM | < 0.01 µM | 12.9 µM | 29.6 nM | > 100 µM | 53.8 nM | > 100 µM | < 10 nM | 0.0293 µM | < 16.9 nM | 38.9 µM | < 0.01 µM | 23.5 µM | < 10 nM | 13.3 µM
O=C(Nc1cc(Cl)cc(Cl)c1)c1ccc(NC2=C(Cl)C(=O)N(Cc3ccc(Cl)cc3Cl)C2=O)cc1 | 10.1 µM | 61.7 µM | 4060 nM | 16.9 µM | 8.12 µM | 54.7 µM | 29.6 µM | > 100 µM | 8870 nM | 39.4 µM | 21200 nM | 71.4 µM | 68000 nM | > 100 µM | 14400 nM | 35 µM | 29.7 µM | > 100 µM | 1570 nM | 7.22 µM
CCC(CO)Nc1nc(NCc2ccccc2O)c2ncn(C(C)C)c2n1 (centres undefined) | 4.77 µM | 18.8 µM | 2650 nM | > 100 µM | 3.1 µM | 16.7 µM | 3.29 µM | > 100 µM | 2550 nM | 13 µM | 15200 nM | > 100 µM | 1960 nM | 6.82 µM | 8950 nM | 50.8 µM | 6.63 µM | 53.9 µM | 2760 nM | > 100 µM
